Entries after “also recorded” stand apart in the source; their conditions may differ. Positions of bridges follow the written chain, without caps; N, C: chain ends. Residues, ends and D or L forms follow the SMILES beside them.
Tests used:
[1] = system: SW480 human colon cancer cells; assay: RONS levels by DCFDA probe, flow cytometry; assay type: cell-based; details: 1 hr, control 14.69
Procedure: (§1) SW480 human colon cancer cells were grown following the instructions of American Type Culture Collection (ATCC, Monassas, Va.). The cells were treated with the test peptide YJB01 for 1 hr at either 20 μM or 100 μM. After treatment, cells were trypsinized and stained with DCFDA (10 μmol/L) for 30 minutes at 37° C. DCFDA fluorescence intensity was analyzed by FACSCaliber (BD Bioscience) following standard protocols. […] Thus, FIG. 6A indicates YJB01 induces RONS production in a concentration dependent manner.
The levels of RONS in SW480 and MCF-7 cells were evaluated using the methodology described in Rigas, B., and Y. Sun. (2008), using the general RONS probe, dichlorodihydrofluorescein diacetate (DCFDA). (Rigas, B., and Sun., Y., (2008), Br J Cancer 98:1157-1160).
as §1, with “37°.” for “37° C.”

[2] = system: SW480 human colon cancer cells; assay: Flow cytometry forward/side scatter, proportion of dead cells, SW480; assay type: cell-based; details: 200 μM, 24 hr
Procedure: (§2) SW480 human colon cancer cells and MCF7 breast cancer cells were grown following the instructions of American Type Culture Collection (ATCC, Monassas, Va.). The cells were treated with the test peptides (YJB01, YJB05, or YJB06) for 24 hrs at concentrations ranging from 0 μM, to 200 μM and subjected to flow cytometric analysis following standard protocols.
(§3) SW480 human colon cancer cells and MCF7 breast cancer cells were grown following the instructions of American Type Culture Collection (ATCC, Monassas, Va.). The cells were treated with the test peptides for 24 hrs at concentrations ranging from 0 μM, to 200 μM and subjected to flow cytometry analysis following standard protocols. […] The circumscribed (gated, outlined) areas in the figure indicate dead cells; dead cells generally have higher density (side scatter) and smaller size (forward scatter) than living cells.

thioredoxin 1 = biological target: T1, thioredoxin 1 (Homo sapiens, UniProt P10599); assay: Thioredoxin 1 redox state, native PAGE immunoblot in SW480 cells; assay type: cell-based; details: YJB01 20 μM and 100 μM, YJB05 100 μM
T1 construct: endogenous in cells; host or cells: SW480 human colon cancer cells
T1 sequence (P10599 1-105): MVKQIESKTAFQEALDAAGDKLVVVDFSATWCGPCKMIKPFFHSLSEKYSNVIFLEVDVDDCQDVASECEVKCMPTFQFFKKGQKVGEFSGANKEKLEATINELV
Procedure: (§4) SW480 human colon cancer cells were grown following the instructions of American Type Culture Collection (ATCC, Monassas, Va.). Cells were treated with either no peptide, with YBJ01 (at 20 μM and 100 μM), or with YBJ05 (at 100 μM). 10^6 cells were lysed in 6 mol/L guanidinium chloride, 50 mmol/L Tris/HCL (pH 8.3), 3 mmol/L EDTA, and 0.5% Triton-X-100 containing 50 mmol/L iodoacetic acid. After 30 min at 37° C., the excess idoacetic acid was removed using Microspin G-25 columns (GE Healthcare Life Sciences). Oxidized and reduced thioredxoin was separated by native PAGE. The gel was electroblotted onto a nitrocellulose membrane and probed with thioredoxin antibodies, followed by HRP-conjugated secondary antibody. Bands corresponding to thioredoxin were visualized by ECL.
as §4, with “10^6 cells from each sample were lysed” for “10^6 cells were lysed”, “native PAGE. […]” for “native PAGE. The gel was electroblotted onto a nitrocellulose membrane and probed with thioredoxin antibodies, followed by HRP-conjugated secondary antibody. Bands corresponding to thioredoxin were visualized by ECL.”

MCF7 breast cancer cells = details: 24 h
Procedure: (§5) 10,000 HT29 or SW480 human colon cancer cells, BxPC-3 human pancreatic cancer cells, and MCF7 and MDA-MB-231 breast cancer cells were obtained from American Type Culture Collection (ATTC), Manassas, Va., and were seeded in separate 96-well plates. After treatment with various concentrations (6.25 μM, 12.5 μM, 25 μM, 50 μM, 100 μM, or 200 μM) of test peptide for 24 h, cells were stained with MTT (3-(4,5-Dimethyl-2-thiazolyl)-2,5-diphenyl-2H-tetrazolium bromide, from Sigma-Aldrich) following the instructions of the manufacturer. Before dissolving MTT in SDS, the HT29 and SW480 cells were photographed using a digital camera connected with a phase-contrast microscope. (FIG. 2A1-8, and FIG. 2B1-6). Cells that are alive convert MTT into formazan in their active mitochondria and appear dark purple; dead cells are not stained by MTT and appear colorless.
(§6) The IC50 is the concentration of the test agent that inhibits cell growth by 50% at 24 hours of exposure. IC50s were determined using the MTT assay or using the cell Titer-Glo method and following the instructions of the manufacturer ([…]). […] (Sun, Y., and Rigas, B., (2008), Cancer Res., 68(20): 8269-8277).

[3] = system: BxPC-3 human pancreatic cancer cells; details: 24 h
Procedure: as §5, §6

[4] = system: MDA-MB-231 breast cancer cells; details: 24 h
Procedure: as §5, §6

[5] = system: MCF-7 human breast cancer cells; assay: Flow cytometry forward/side scatter, proportion of dead cells, MCF7; assay type: cell-based; details: 200 μM, 24 hr
Procedure: as §2, §3

CC[C@H](C)[C@H](NC(=O)[C@H](CCCCN)NC(=O)[C@@H](NC(=O)[C@H](CCC(N)=O)NC(=O)[C@H](CCCNC(=N)N)NC(=O)[C@@H]1CCCN1C(=O)[C@H](CCCCN)NC(=O)[C@@H]1CSSC[C@H](NC(=O)[C@H](Cc2c[nH]c3ccccc23)NC(=O)[C@@H](NC(=O)[C@H](C)N)[C@@H](C)O)C(=O)NCC(=O)N2CCC[C@H]2C(=O)N1)[C@@H](C)CC)C(=O)N[C@@H](Cc1c[nH]c2ccccc12)C(=O)N[C@@H](Cc1ccccc1)C(=O)N[C@@H](CCC(N)=O)C(=O)N[C@@H](CC(N)=O)C(=O)N[C@@H](CCCNC(=N)N)C(=O)N[C@@H](CCCNC(=N)N)C(=O)N[C@@H](CCSC)C(=O)N[C@@H](CCCCN)C(=O)N[C@@H](Cc1c[nH]c2ccccc12)C(=O)N[C@@H](CCCCN)C(=O)N[C@@H](CCCCN)C(=O)O [YJB01] (H-ATWCGPCKPRQIKIWFQNRRMKWKK-OH; disulfide 4-7; N-terminus and C-terminus assumed)
Geometric Mean of the fluorescence intensity of DCFDA ([1]; 20 μM): 19.05
Geometric Mean of the fluorescence intensity of DCFDA ([1]; 100 μM): 29.6
dead cells, SW480 [2]: 81.19%
induction of the oxidized form of thioredoxin 1 (thioredoxin 1): induces the oxidized form of thioredoxin 1; also recorded: capable of inducing oxidation
IC50 (MCF7 breast cancer cells): 68.9 µM
IC50 [3]: 109 µM
IC50 [4]: 88 µM
dead cells, MCF7 [5]: 72.12%
